Data: patent US20260374792A1, “PHENYL-FREE BISCATIONIC QUATERNARY PHOSPHONIUM COMPOUNDS AS ANTIMICROBIAL AGENTS” (priority 2022, published 2026)

How the values were obtained:
P. aeruginosa (PAO1) = assay: MIC against P. aeruginosa; format: cell-based; conditions: Pseudomonas aeruginosa; P. aeruginosa (PAO1); 72 hours, 37 °C; read-out: MIC
Method: (§1) The term “minimum inhibitory concentration (MIC)” means the lowest concentration of an antimicrobial agent that will inhibit the visible growth of a microorganism after overnight incubation. MIC values against bacteria, for example, the Gram-positive Staphylococcus aureus and Enterococcus faecalis and the Gram-negative Escherichia coli and Pseudomonas aeruginosa were determined by standard methods. See also P. A. Wayne, Methods for Dilution Antimicrobial Tests for Bacteria that Grow Aerobically; Approved Standard, Ninth Edition, 2012, CLSI Document M07-A9, Vol. 32 No. 2.
(§2) Biological testing procedures were adapted from prior work by Melander and coworkers. For all biological assays, laboratory strains of methicillin-susceptible Staphylococcus aureus MSSA (SH1000), Staphylococcus aureus CA-MRSA (USA300-0114), Staphylococcus aureus HA-MRSA (ATCC 33591), Escherichia coli (MC4100), Enterococcus faecalis (OG1RF), Acinetobacter baumannii (ATCC 17978), were grown with shaking at 37 °C overnight from freezer stocks in 5 mL of the indicated media: SH1000, OG1RF, MC4100, USA300-0114, and ATCC 17978 were grown in BDTM Mueller-Hinton broth (MHB), whereas ATCC 33591 was grown in BDTM tryptic soy broth (TSB). The inoculum were then streaked onto Mueller-Hinton agar (MHA) plates and grown overnight at 37 °C. From the plates, single colonies were selected, diluted into 50 mL of fresh media and grown overnight at 37 °C with shaking for use in the MIC assays. Optical density (OD) measurements were obtained using a SpectraMax iD3 plate reader (Molecular Devices, United States).
(§3) Compounds were serially diluted two-fold from stock solutions (1.0 mM) to yield twelve 100 μL test concentrations, wherein the starting concentration of dimethyl sulfoxide (DMSO) was 2.5%. Overnight S. aureus, E. faecalis, E. coli, A. baumannii, USA300-0114 (CA-MRSA), and ATCC 33591 (HA-MRSA) cultures were diluted to ca. 10^6 CFU/mL in MHB or TSB and regrown to mid-exponential phase, as determined by optical density recorded at 600 nm (OD600). All cultures were then diluted again to ca. 10^6 CFU/mL and 100 μL were inoculated into each well of a U-bottom 96-well plate (Corning, 351177) containing 100 μL of compound solution. Plates were incubated statically at 37 °C for 72 hours upon which wells were evaluated visually for bacterial growth. The MIC was determined as the lowest concentration of compound resulting in no bacterial growth visible to the naked eye, based on the highest value in three independent experiments. Aqueous DMSO controls were conducted as appropriate for each compound.
(§4) The prepared library of biscationic amphiphilic compounds was assessed for performance as antibacterial disinfectants by determining the minimum inhibitory concentration (MIC) for each against a panel of bacteria. The bacteria selected for the study were chosen to evaluate the broad spectrum antimicrobial performance of the QPCs, and therefore, included both Gram-positive and Gram-negative bacterial strains, including those with known antimicrobial resistance mechanisms. These bacteria include the Gram-positive strains of methicillin-susceptible Staphylococcus aureus [MSSA; SH1000], community-acquired methicillin-resistant Staphylococcus aureus [CA-MRSA; USA 300-0114], hospital-acquired methicillin-resistant Staphylococcus aureus [HA-MRSA; ATCC 33591] and the […], Escherichia coli [MC4100], Acinetobacter baumannii [ATCC 17498] and Pseudomonas aeruginosa [PAO1].

HA-MRSA (ATCC 33591) = assay: MIC against hospital-acquired methicillin-resistant S. aureus (HA-MRSA); format: cell-based; conditions: Staphylococcus aureus, 72 h
Method: as §1, §2, §3, §4

MSSA (SH1000) = assay: MIC against methicillin-susceptible S. aureus (MSSA); format: cell-based; conditions: Staphylococcus aureus; MSSA (SH1000); 72 hours, 37 °C; read-out: MIC
Method: as §1, §2, §3, §4

red blood cells = assay: Red Blood Cell (RBC) Lysis Assay (lysis20); format: cell-based, sheep; conditions: concentration inducing 20% RBC lysis; sheep blood, 1 hour, 37 °C
Method: RBC lysis assays were performed on mechanically defibrinated sheep blood (Hemostat Labs: DSB030). An aliquot of 1.5 mL blood was placed into a microcentrifuge tube and centrifuged at 3,800 rpm for ten minutes. The supernatant was removed, and the cells were resuspended with 1 mL of phosphate-buffered saline (PBS). The suspension was centrifuged as described above, the supernatant was removed, and cells were resuspended 4 additional times in 1 mL PBS. The final cell suspension was diluted twentyfold with PBS. Compounds were serially diluted with PBS two-fold from stock solutions (1.0 mM) to yield 100 μL of twelve test concentrations on a flat-bottom 96-well plate (Corning, 351172), wherein the starting concentration of DMSO was 2.5%. To each of the wells, 100 μL of the twentyfold suspension dilution was then inoculated. TritonX (1% by volume) served as a positive control (100% lysis marker) and sterile PBS served as a negative control (0% lysis marker). Samples were then placed in an incubator at 37 °C and shaken at 200 rpm. After 1 hour, the samples were centrifuged at 3,800 rpm for ten minutes. The absorbance of the supernatant was measured with a UV spectrometer at a 540 nm wavelength. The concentration inducing 20% RBC lysis was then calculated for each compound based upon the absorbances of the TritonX and PBS controls. Aqueous DMSO controls were conducted as appropriate for each compound.
The potential cytotoxicity of the compounds was also considered with the evaluation of hemolysis (lysis20) assays with 20% lysis of red blood cells serving as an indicator of potentially toxic compounds. Finally, the bioactivity of these compounds were benchmarked against a commercial benzalkonium chloride source (BAC; 70% benzyldimethyldodecylammonium chloride, and 30% benzyldimethyltetradecylammonium chloride) as well as some previously reported disinfectant compounds from the inventors' groups; included were bisQPC ^PhP6P-10,10 as well as ^PhP2P-10,10 and 12(2)12. A detailed description of the experimental procedures used to evaluate bioactivity and hemolysis assays are described above.

A. baumannii = assay: MIC against A. baumannii; format: cell-based; conditions: Acinetobacter baumannii, 72 h
Method: as §1, §2, §3, §4

CA-MRSA (USA300-0114) = assay: MIC against community-acquired methicillin-resistant S. aureus (CA-MRSA); format: cell-based; conditions: Staphylococcus aureus, 72 h
Method: as §1, §2, §3, §4

E. coli (MC4100) = assay: MIC against E. coli; format: cell-based; conditions: Escherichia coli, 72 hours, 37 °C
Method: as §1, §2, §3, §4

E. faecalis (OG1RF) = assay: MIC against E. faecalis; format: cell-based; conditions: Enterococcus faecalis, 72 h
Method: as §1, §2, §3, §4

`CCCCCCCC[P+](CC[P+](CCCCCCCC)(C1CCCCC1)C1CCCCC1)(C1CCCCC1)C1CCCCC1` [^CyP2P-8,8] showed an MIC (P. aeruginosa (PAO1)) of 250 µM, an MIC (HA-MRSA (ATCC 33591)) of 8 µM and an MIC (MSSA (SH1000)) of 2 µM. For the same molecule, the Lysis20 (red blood cells) was 125 µM, the MIC (A. baumannii) was 125 µM and the MIC (CA-MRSA (USA300-0114)) was 2 µM. The MIC (E. coli (MC4100)) was 63 µM and the MIC (E. faecalis (OG1RF)) was 63 µM.
`CCCCCCCCCC[P+](CC[P+](CCCCCCCCCC)(C1CCCCC1)C1CCCCC1)(C1CCCCC1)C1CCCCC1` [^CyP2P-10,10] gave an MIC (P. aeruginosa (PAO1)) of 8 µM, an MIC (HA-MRSA (ATCC 33591)) of 1 µM and an MIC (MSSA (SH1000)) of 1 µM. The Lysis20 (red blood cells) was 16 µM, the MIC (A. baumannii) was 8 µM and the MIC (CA-MRSA (USA300-0114)) was 1 µM. It also gave an MIC (E. coli (MC4100)) of 8 µM and an MIC (E. faecalis (OG1RF)) of 8 µM.
For `CCCCCCCCCCCC[P+](CC[P+](CCCCCCCCCCCC)(C1CCCCC1)C1CCCCC1)(C1CCCCC1)C1CCCCC1` [^CyP2P-12,12], the MIC (P. aeruginosa (PAO1)) was 16 µM, the MIC (HA-MRSA (ATCC 33591)) was 2 µM and the MIC (MSSA (SH1000)) was 2 µM. It also gave a Lysis20 (red blood cells) of 16 µM, an MIC (A. baumannii) of 4 µM and an MIC (CA-MRSA (USA300-0114)) of 2 µM. It also gave an MIC (E. coli (MC4100)) of 8 µM and an MIC (E. faecalis (OG1RF)) of 16 µM.
With `CCCCCCCCCCCCC[P+](CC[P+](CCCCCCCCCCCCC)(C1CCCCC1)C1CCCCC1)(C1CCCCC1)C1CCCCC1` [^CyP2P-13,13] the MIC (P. aeruginosa (PAO1)) was 63 µM, the MIC (HA-MRSA (ATCC 33591)) was 1 µM and the MIC (MSSA (SH1000)) was 2 µM. It also gave a Lysis20 (red blood cells) of 8 µM, an MIC (A. baumannii) of 16 µM and an MIC (CA-MRSA (USA300-0114)) of 2 µM. It also gave an MIC (E. coli (MC4100)) of 32 µM and an MIC (E. faecalis (OG1RF)) of 32 µM.
With `CCCCCCCCCCCCCC[P+](CC[P+](CCCCCCCCCCCCCC)(C1CCCCC1)C1CCCCC1)(C1CCCCC1)C1CCCCC1` [^CyP2P-14,14] the MIC (P. aeruginosa (PAO1)) was 63 µM, the MIC (HA-MRSA (ATCC 33591)) was 2 µM and the MIC (MSSA (SH1000)) was 4 µM. It also gave a Lysis20 (red blood cells) of 8 µM, an MIC (A. baumannii) of 63 µM and an MIC (CA-MRSA (USA300-0114)) of 4 µM. The MIC (E. coli (MC4100)) was 63 µM and the MIC (E. faecalis (OG1RF)) was 32 µM.
Molecule `CCCCCCCCCCCCCCCC[P+](CC[P+](CCCCCCCCCCCCCCCC)(C1CCCCC1)C1CCCCC1)(C1CCCCC1)C1CCCCC1` [^CyP2P-16,16] has an MIC (P. aeruginosa (PAO1)) of 63 µM, an MIC (HA-MRSA (ATCC 33591)) of 2 µM and an MIC (MSSA (SH1000)) of 8 µM. The Lysis20 (red blood cells) was 32 µM, the MIC (A. baumannii) was 125 µM and the MIC (CA-MRSA (USA300-0114)) was 2 µM. For the same molecule, the MIC (E. coli (MC4100)) was 125 µM and the MIC (E. faecalis (OG1RF)) was 125 µM.
For `CCCCCCCC[P+](CC)(CC)CC[P+](CC)(CC)CCCCCCCC` [^EtP2P-8,8], the MIC (P. aeruginosa (PAO1)) was over 250 µM, the MIC (HA-MRSA (ATCC 33591)) was 250 µM and the MIC (MSSA (SH1000)) was 63 µM. For the same molecule, the Lysis20 (red blood cells) was 250 µM, the MIC (A. baumannii) was over 250 µM and the MIC (CA-MRSA (USA300-0114)) was 125 µM. For the same molecule, the MIC (E. coli (MC4100)) was over 250 µM and the MIC (E. faecalis (OG1RF)) was over 250 µM.
`CCCCCCCCCC[P+](CC)(CC)CC[P+](CC)(CC)CCCCCCCCCC` [^EtP2P-10,10] was tested, and the MIC (P. aeruginosa (PAO1)) was 32 µM, the MIC (HA-MRSA (ATCC 33591)) was 8 µM and the MIC (MSSA (SH1000)) was 2 µM. The Lysis20 (red blood cells) was 63 µM, the MIC (A. baumannii) was 32 µM and the MIC (CA-MRSA (USA300-0114)) was 1 µM. It also gave an MIC (E. coli (MC4100)) of 16 µM and an MIC (E. faecalis (OG1RF)) of 16 µM.
Work on `CCCCCCCCCCC[P+](CC)(CC)CC[P+](CC)(CC)CCCCCCCCCCC` [^EtP2P-11,11] yielded an MIC (P. aeruginosa (PAO1)) of 16 µM, an MIC (HA-MRSA (ATCC 33591)) of 2 µM and an MIC (MSSA (SH1000)) of 1 µM. It also gave a Lysis20 (red blood cells) of 16 µM, an MIC (A. baumannii) of 8 µM and an MIC (CA-MRSA (USA300-0114)) of 1 µM. For the same molecule, the MIC (E. coli (MC4100)) was 4 µM and the MIC (E. faecalis (OG1RF)) was 4 µM.
